Experimental data reported in PubChem BioAssay (NCI).
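In this assay, cells in 96-well plates receive the compound at five concentrations for 48 hours. Endpoints are linearly interpolated between the surrounding concentrations. At the TGI there is no net growth.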

Assays:
Experiment in all cases: NCI tumour cell line growth inhibition, 48 h
A498 renal = system: A498 renal
A549 NSCLC = system: A549 NSCLC
CAKI-1 renal = system: CAKI-1 renal
CCRF-CEM leukemia = system: CCRF-CEM leukemia
COLO 205 colon = system: COLO 205 colon
DLD-1 colon = system: DLD-1 colon
DMS 114 small cell lung = system: DMS 114 small cell lung
DMS 273 small cell lung = system: DMS 273 small cell lung
EKVX NSCLC = system: EKVX NSCLC
HCC-2998 colon = system: HCC-2998 colon
HCT-116 colon = system: HCT-116 colon
HCT-15 colon = system: HCT-15 colon
HL-60(TB) leukemia = system: HL-60(TB) leukemia
HOP-18 NSCLC = system: HOP-18 NSCLC
HOP-62 NSCLC = system: HOP-62 NSCLC
HOP-92 NSCLC = system: HOP-92 NSCLC
HT29 colon = system: HT29 colon
IGROV1 ovarian = system: IGROV1 ovarian
KM12 colon = system: KM12 colon
KM20L2 colon = system: KM20L2 colon
LOX IMVI melanoma = system: LOX IMVI melanoma
M19-MEL melanoma = system: M19-MEL melanoma
MALME-3M melanoma = system: MALME-3M melanoma
MCF7 breast = system: MCF7 breast
MOLT-4 leukemia = system: MOLT-4 leukemia
NCI-H226 lung = system: NCI-H226 lung
NCI-H23 lung = system: NCI-H23 lung
NCI-H460 lung = system: NCI-H460 lung
NCI-H522 lung = system: NCI-H522 lung
NCI/ADR-RES ovarian = system: NCI/ADR-RES ovarian
OVCAR-3 ovarian = system: OVCAR-3 ovarian
OVCAR-4 ovarian = system: OVCAR-4 ovarian
OVCAR-5 ovarian = system: OVCAR-5 ovarian
OVCAR-8 ovarian = system: OVCAR-8 ovarian
P388 leukemia = system: P388 leukemia
P388/ADR leukemia = system: P388/ADR leukemia
RPMI-8226 leukemia = system: RPMI-8226 leukemia
RXF 393 renal = system: RXF 393 renal
SF-268 CNS = system: SF-268 CNS
SF-295 CNS = system: SF-295 CNS
SF-539 CNS = system: SF-539 CNS
SK-MEL-2 melanoma = system: SK-MEL-2 melanoma
SK-MEL-28 melanoma = system: SK-MEL-28 melanoma
SK-MEL-5 melanoma = system: SK-MEL-5 melanoma
SK-OV-3 ovarian = system: SK-OV-3 ovarian
SN12C renal = system: SN12C renal
SN12K1 renal = system: SN12K1 renal
SNB-19 CNS = system: SNB-19 CNS
SNB-75 CNS = system: SNB-75 CNS
SNB-78 CNS = system: SNB-78 CNS
SW-620 colon = system: SW-620 colon
U251 CNS = system: U251 CNS
UACC-257 melanoma = system: UACC-257 melanoma
UACC-62 melanoma = system: UACC-62 melanoma
UO-31 renal = system: UO-31 renal
XF 498 CNS = system: XF 498 CNS

`Nc1nc(N)nc(-c2ccccc2NS(=O)(=O)c2ccc([N+](=O)[O-])cc2)n1` was tested, and the TGI (A498 renal) was over 100 µM, the TGI (A549 NSCLC) was over 100 µM and the TGI (CAKI-1 renal) was over 34.6 µM. The TGI (CCRF-CEM leukemia) was over 100 µM, the TGI (COLO 205 colon) was over 31.6 µM and the TGI (DLD-1 colon) was over 100 µM. It also gave a TGI (DMS 114 small cell lung) of over 100 µM, a TGI (DMS 273 small cell lung) of over 100 µM and a TGI (EKVX NSCLC) of over 100 µM. It also gave a TGI (HCC-2998 colon) of over 100 µM, a TGI (HCT-116 colon) of over 100 µM and a TGI (HCT-15 colon) of over 100 µM. The TGI (HL-60(TB) leukemia) was 61.5 µM, the TGI (HOP-18 NSCLC) was over 100 µM and the TGI (HOP-62 NSCLC) was over 100 µM. For the same molecule, the TGI (HOP-92 NSCLC) was over 100 µM, the TGI (HT29 colon) was over 100 µM and the TGI (IGROV1 ovarian) was over 100 µM. For the same molecule, the TGI (KM12 colon) was over 100 µM, the TGI (KM20L2 colon) was over 100 µM and the TGI (LOX IMVI melanoma) was over 100 µM. For the same molecule, the TGI (M19-MEL melanoma) was over 100 µM, the TGI (MALME-3M melanoma) was over 100 µM and the TGI (MCF7 breast) was over 100 µM. For the same molecule, the TGI (MOLT-4 leukemia) was over 100 µM, the TGI (NCI-H226 lung) was over 100 µM and the TGI (NCI-H23 lung) was over 100 µM. For the same molecule, the TGI (NCI-H460 lung) was over 100 µM, the TGI (NCI-H522 lung) was over 100 µM and the TGI (NCI/ADR-RES ovarian) was over 100 µM. The TGI (OVCAR-3 ovarian) was over 100 µM, the TGI (OVCAR-4 ovarian) was over 100 µM and the TGI (OVCAR-5 ovarian) was over 100 µM. It also gave a TGI (OVCAR-8 ovarian) of over 100 µM, a TGI (P388 leukemia) of over 100 µM and a TGI (P388/ADR leukemia) of over 100 µM. The TGI (RPMI-8226 leukemia) was over 100 µM, the TGI (RXF 393 renal) was over 100 µM and the TGI (SF-268 CNS) was over 100 µM. The TGI (SF-295 CNS) was over 100 µM, the TGI (SF-539 CNS) was over 100 µM and the TGI (SK-MEL-2 melanoma) was over 100 µM. It also gave a TGI (SK-MEL-28 melanoma) of over 100 µM, a TGI (SK-MEL-5 melanoma) of over 84.8 µM and a TGI (SK-OV-3 ovarian) of over 100 µM. It also gave a TGI (SN12C renal) of over 100 µM, a TGI (SN12K1 renal) of over 100 µM and a TGI (SNB-19 CNS) of over 100 µM. It also gave a TGI (SNB-75 CNS) of over 90.6 µM, a TGI (SNB-78 CNS) of over 100 µM and a TGI (SW-620 colon) of over 100 µM. For the same molecule, the TGI (U251 CNS) was over 100 µM, the TGI (UACC-257 melanoma) was over 100 µM and the TGI (UACC-62 melanoma) was over 100 µM. For the same molecule, the TGI (UO-31 renal) was over 100 µM and the TGI (XF 498 CNS) was 63.5 µM.
